We go through 5 compounds from ChEMBL document CHEMBL5346904 (Eur J Med Chem, 2023).

Converted amounts (≈) assume the structure as drawn. The source made the active and inactive calls. The calls are words filed in the database; no cut-off is given here.

One data set concerns Staphylococcus aureus. Description: Antimicrobial activity against Staphylococcus aureus ATCC 9144 assessed as inhibition of bacterial growth incubated for 48 hrs by CLSI based broth microdilution method. It is filed as functional.
Data set [1] deals with Bacillus subtilis. The data set is described as follows: Antimicrobial activity against Bacillus subtilis 168 assessed as inhibition of bacterial growth incubated for 48 hrs by CLSI based broth microdilution method. The data set is classed as functional. (In general: In broth dilution the organism is exposed to a series of concentrations in liquid medium.)
Data set [2] relates to Escherichia coli. Description: Antimicrobial activity against Escherichia coli ATCC 25922 assessed as inhibition of bacterial growth incubated for 48 hrs by CLSI based broth microdilution method. The data set is classed as functional.
A further data set has as its system Pseudomonas aeruginosa. Description: Antimicrobial activity against Pseudomonas aeruginosa ATCC 27853 assessed as inhibition of bacterial growth incubated for 48 hrs by CLSI based broth microdilution method. It is filed as functional.
Data set [3] in a line: Hemolytic activity in human RBC assessed as hemolysis incubated for 1 hr by absorbance based microplate reader analysis. It is filed as toxicity, cell-based, Erythrocyte. The following applies: human red blood cells (erythrocytes).
The nature of data set [4]: Selectivity index, ratio of EC50 for hemolytic activity in human RBC assessed as hemolysis to MIC for antimicrobial activity against Staphylococcus aureus ATCC 9144 assessed as inhibition of bacterial growth. The data set is classed as toxicity. Particulars: human red blood cells (erythrocytes), read-out: Selectivity Index.
Data set [5] can be described thus: Selectivity index, ratio of EC50 for hemolytic activity in human RBC assessed as hemolysis to MIC for antimicrobial activity against Bacillus subtilis 168 assessed as inhibition of bacterial growth. The data set is classed as toxicity. Particulars: human red blood cells (erythrocytes), read-out: Selectivity Index.
A short description of data set [6]: Selectivity index, ratio of EC50 for hemolytic activity in human RBC assessed as hemolysis to MIC for antimicrobial activity against Escherichia coli ATCC 25922 assessed as inhibition of bacterial growth. Particulars: human red blood cells (erythrocytes), read-out: Selectivity Index. It is filed as toxicity.
Data set [7] is described as follows: Selectivity index, ratio of EC50 for hemolytic activity in human RBC assessed as hemolysis to MIC for antimicrobial activity against Pseudomonas aeruginosa ATCC 27853 assessed as inhibition of bacterial growth. The data set is classed as toxicity. Particulars: human red blood cells (erythrocytes), read-out: Selectivity Index.
The test system of data set [8] is Escherichia coli. The data set is described as follows: Antimicrobial activity against Escherichia coli K12 assessed as inhibition of bacterial growth incubated for 48 hrs by CLSI based broth microdilution method. The data set is classed as functional.
The test system of data set [9] is Bacillus subtilis. Description: Antibacterial activity against Bacillus subtilis 168 assessed as reduction in bacterial viability at 1.6 to 51.2 microg/ml measured after 3 min. It is filed as functional, organism-based. The following applies: dose 1.6-51.2 µg/ml.
Data set [10] concerns Cell membrane. The data set is described as follows: Disruption of membrane integrity in Bacillus subtilis 168 measured for 180 sec by luciferase based bioluminescence assay. It is filed as subcellular. The following applies: dose 1.6-51.2 µg/ml.
Data set [11] concerns Cell membrane. The data set is described as follows: Disruption of membrane integrity in Bacillus subtilis 168 at 25.6 to 51.2 microg/ml measured for 180 sec by luciferase based bioluminescence assay. The following applies: dose 25.6-51.2 µg/ml.
The subject of data set [12] is Cell membrane. The data set is described as follows: Disruption of membrane integrity in Bacillus subtilis 168 at 25.6 microg/ml measured for 180 sec by luciferase based bioluminescence assay. The data set is classed as subcellular. The following applies: dose 25.6 µg/ml.
The subject of data set [13] is Escherichia coli. Description: Antibacterial activity against Escherichia coli K12 assessed as reduction in bacterial viability at 1.6 to 51.2 microg/ml measured for 3 min. The data set is classed as functional, organism-based. Particulars: dose 1.6-51.2 µg/ml.
For data set [14], the system named is Escherichia coli. Description: Antibacterial activity against Escherichia coli K12 assessed as reduction in bacterial viability measured for 3 min. The data set is classed as functional, organism-based. The following applies: dose 1.6-51.2 µg/ml.
The test system of data set [15] is Cell membrane. The data set is described as follows: Disruption of inner membrane integrity in Escherichia coli K12 at 51.2 microg/ml measured for 180 sec by luciferase based bioluminescence assay. It is filed as subcellular. Particulars: dose 51.2 µg/ml.
Data set [16] has as its system Cell membrane. Description: Induction of outer membrane permeabilization in Escherichia coli K12 assessed as increase in fluorescence intensity at 1.6 to 51.2 microg/ml measured for […] by NPN uptake assay. It is filed as subcellular. The following applies: dose 1.6-51.2 µg/ml.
In data set [17] the test system is Cell membrane. The data set is described as follows: Disruption of inner membrane integrity in Escherichia coli K12 at 1.6 to 25.6 microg/ml measured for 3 mins by luciferase based bioluminescence assay. It is filed as subcellular. The following applies: dose 1.6-25.6 µg/ml.
Data set [18] concerns Cell membrane. Description: Disruption of inner membrane integrity in Escherichia coli K12 at 51.2 microg/ml measured for 3 mins by luciferase based bioluminescence assay. The data set is classed as subcellular. The following applies: dose 51.2 µg/ml.
The test system of data set [19] is Escherichia coli. The data set is described as follows: Antibacterial activity against Escherichia coli K12 assessed as reduction in bacterial viability at 51.2 microg/ml measured for 3 min. The data set is classed as functional, organism-based. The following applies: dose 51.2 µg/ml.
In data set [20] the test system is Cell membrane. Description: Disruption of outer membrane integrity in Escherichia coli K12 assessed as increase in fluorescence intensity at 51.2 microg/ml measured for 3 mins by NPN uptake assay. The data set is classed as subcellular. The following applies: dose 51.2 µg/ml.

By MIC is commonly meant the lowest concentration that inhibits growth of the organism. The term EC50 denotes the concentration at which the effect is half-maximal.

For the compound `N=C(N)NCCCCN1C(=O)N(CCCCNC(=N)N)C(Cc2cc(Br)cc(Br)c2)(Cc2cc(Br)cc(Br)c2)C1=O.O=C(O)C(F)(F)F.O=C(O)C(F)(F)F`, the minimum inhibitory concentration (MIC) in the data set with Staphylococcus aureus is 1 µg/mL; in the data set on Bacillus subtilis [1], 1 µg/mL; with Escherichia coli [2] it was 4 µg/mL; in the data set with Pseudomonas aeruginosa, 16 µg/mL. Besides, the EC50 at 1 h in data set [3] turned out to be 206 µg/mL. Moreover, the selectivity ratio was 206 in data set [4], 206 in [5], 52 in data set [6] and 13 in [7].
Take `NCCCN1C(=O)N(CCCN)C(Cc2cc(C(F)(F)F)cc(C(F)(F)F)c2)(Cc2cc(C(F)(F)F)cc(C(F)(F)F)c2)C1=O.O=C(O)C(F)(F)F.O=C(O)C(F)(F)F`: the minimal inhibitory concentration (MIC) in the data set on Staphylococcus aureus turned out to be 16 µg/mL; in the data set on Bacillus subtilis [1] it was 8 µg/mL; in the data set on Escherichia coli [2], 16 µg/mL; in the data set on Pseudomonas aeruginosa, 16 µg/mL. Moreover, in [3], the EC50 at 1 h was 399 µg/mL. Moreover, the selectivity ratio in data set [4] worked out at 25; in data set [5], 50; in [6], 25; in [7] it was 25.
As for `N=C(NCCCCCCNC(=N)NC(=N)Nc1ccc(Cl)cc1)NC(=N)Nc1ccc(Cl)cc1` [CHLORHEXIDINE], the minimal inhibitory concentration (MIC) with Bacillus subtilis [1] and in the data set on Escherichia coli [8] was 1.5 µg/mL (≈ 2.97 µM) throughout.
As for `N=C(N)NCCCCN1C(=O)N(CCCCNC(=N)N)C(Cc2ccc(Br)c(Cl)c2)(Cc2ccc(Br)c(Cl)c2)C1=O.O=C(O)C(F)(F)F.O=C(O)C(F)(F)F`, the MIC in the data set with Staphylococcus aureus was 1 µg/mL; with Bacillus subtilis [1] it was 1 µg/mL; with Escherichia coli [2] it was 8 µg/mL; in the data set on Pseudomonas aeruginosa it was 32 µg/mL. The EC50 at 1 h in data set [3] came out at 347 µg/mL. The selectivity ratio in data set [4] worked out at 347; in data set [5] it was 347; in data set [6] it was 43. Further, the result with Bacillus subtilis [9], in the data set with Cell membrane [11], in the data set on Cell membrane [12], with Cell membrane [16], in the data set on Cell membrane [18] and with Escherichia coli [19] was Active. Further, the result with Cell membrane [20] was Active. For the same compound, the Activity result in the data set on Cell membrane [10] and with Escherichia coli [14] was “Dose-Dependent Effect” each time. Moreover, the outcome in the data set with Escherichia coli [13], in the data set on Cell membrane [15] and in the data set on Cell membrane [17] was inactive.
With `NCCCN1C(=O)N(CCCN)C(Cc2cc(Br)cc(Br)c2)(Cc2cc(Br)cc(Br)c2)C1=O.O=C(O)C(F)(F)F.O=C(O)C(F)(F)F`, the minimal inhibitory concentration (MIC) was 8 µg/mL in the data set with Staphylococcus aureus, 4 µg/mL in the data set with Bacillus subtilis [1], 16 µg/mL in the data set on Escherichia coli [2] and 8 µg/mL in the data set on Pseudomonas aeruginosa. In data set [3], the concentration giving a half-maximal response (EC50) at 1 h turned out to be 344 µg/mL. Besides, the selectivity ratio in data set [4] came to 43; in data set [5], 86; in [6], 22; in [7] it was 43.
